In PubChem BioAssay (NCI):
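GI50 = concentration required for 50% inhibition of growth. TGI denotes the concentration required for complete inhibition of growth.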

Columns and labels:
Test in all cases: NCI anticancer screen, dose series, 384-well format
786-0 renal = tested on: 786-0 renal
ACHN renal = tested on: ACHN renal
BT-549 breast = tested on: BT-549 breast
CAKI-1 renal = tested on: CAKI-1 renal
CCRF-CEM leukemia = tested on: CCRF-CEM leukemia
EKVX NSCLC = tested on: EKVX NSCLC
HCT-15 colon = tested on: HCT-15 colon
HL-60(TB) leukemia = tested on: HL-60(TB) leukemia
HOP-62 NSCLC = tested on: HOP-62 NSCLC
HOP-92 NSCLC = tested on: HOP-92 NSCLC
HS 578T breast = tested on: HS 578T breast
HT29 colon = tested on: HT29 colon
IGROV1 ovarian = tested on: IGROV1 ovarian
K-562 leukemia = tested on: K-562 leukemia
LOX IMVI melanoma = tested on: LOX IMVI melanoma
M14 melanoma = tested on: M14 melanoma
MALME-3M melanoma = tested on: MALME-3M melanoma
MDA-MB-231 breast = tested on: MDA-MB-231 breast
MDA-MB-435 melanoma = tested on: MDA-MB-435 melanoma
MDA-MB-468 breast = tested on: MDA-MB-468 breast
NCI-H226 lung = tested on: NCI-H226 lung
NCI-H23 lung = tested on: NCI-H23 lung
NCI-H322M lung = tested on: NCI-H322M lung
NCI-H460 NSCLC = tested on: NCI-H460 NSCLC
NCI/ADR-RES ovarian = tested on: NCI/ADR-RES ovarian
OVCAR-3 ovarian = tested on: OVCAR-3 ovarian
OVCAR-4 ovarian = tested on: OVCAR-4 ovarian
OVCAR-5 ovarian = tested on: OVCAR-5 ovarian
OVCAR-8 ovarian = tested on: OVCAR-8 ovarian
RPMI-8226 leukemia = tested on: RPMI-8226 leukemia
RXF 393 renal = tested on: RXF 393 renal
SF-295 CNS = tested on: SF-295 CNS
SF-539 CNS = tested on: SF-539 CNS
SK-MEL-2 melanoma = tested on: SK-MEL-2 melanoma
SK-MEL-28 melanoma = tested on: SK-MEL-28 melanoma
SK-MEL-5 melanoma = tested on: SK-MEL-5 melanoma
SK-OV-3 ovarian = tested on: SK-OV-3 ovarian
SN12C renal = tested on: SN12C renal
SNB-19 CNS = tested on: SNB-19 CNS
SNB-75 CNS = tested on: SNB-75 CNS
SR leukemia = tested on: SR leukemia
SW-620 colon = tested on: SW-620 colon
T-47D breast = tested on: T-47D breast
TK-10 renal = tested on: TK-10 renal
U251 glioblastoma = tested on: U251 glioblastoma
UACC-257 melanoma = tested on: UACC-257 melanoma
UO-31 renal = tested on: UO-31 renal

Compound: COCCOc1cc(F)c2c(Nc3ccc(NC(=O)Cn4cc(C(C)C)nn4)cc3)ncnc2c1
- GI50 ([…]-0 renal): 49.7 µM
- TGI (786-0 renal): > 100 µM
- GI50 (ACHN renal): > 100 µM
- TGI (ACHN renal): > 100 µM
- GI50 (BT-549 breast): 38.4 µM
- TGI (BT-549 breast): > 100 µM
- GI50 (CAKI-1 renal): 38.4 µM
- TGI (CAKI-1 renal): > 100 µM
- GI50 (CCRF-CEM leukemia): 7.64 µM
- TGI (CCRF-CEM leukemia): 37.9 µM
- GI50 (EKVX NSCLC): 41 µM
- TGI (EKVX NSCLC): > 100 µM
- GI50 (HCT-15 colon): 24.9 µM
- TGI (HCT-15 colon): > 100 µM
- GI50 (HL-60(TB) leukemia): 17.3 µM
- TGI (HL-60(TB) leukemia): 37.9 µM
- GI50 (HOP-62 NSCLC): 18.1 µM
- TGI (HOP-62 NSCLC): > 100 µM
- GI50 (HOP-92 NSCLC): 30.7 µM
- TGI (HOP-92 NSCLC): > 100 µM
- GI50 (HS 578T breast): 12.2 µM
- TGI (HS 578T breast): 82.3 µM
- GI50 (HT29 colon): > 100 µM
- TGI (HT29 colon): > 100 µM
- GI50 (IGROV1 ovarian): 53.5 µM
- TGI (IGROV1 ovarian): > 100 µM
- GI50 (K-562 leukemia): 3.25 µM
- TGI (K-562 leukemia): > 100 µM
- GI50 (LOX IMVI melanoma): 43.6 µM
- TGI (LOX IMVI melanoma): > 100 µM
- GI50 (M14 melanoma): 59 µM
- TGI (M14 melanoma): > 100 µM
- GI50 (MALME-3M melanoma): 25 µM
- TGI (MALME-3M melanoma): > 100 µM
- GI50 (MDA-MB-231 breast): 30.5 µM
- TGI (MDA-MB-231 breast): > 100 µM
- GI50 (MDA-MB-435 melanoma): 62.1 µM
- TGI (MDA-MB-435 melanoma): > 100 µM
- GI50 (MDA-MB-468 breast): 7.69 µM
- TGI (MDA-MB-468 breast): > 100 µM
- GI50 (NCI-H226 lung): 7.16 µM
- TGI (NCI-H226 lung): > 100 µM
- GI50 (NCI-H23 lung): 35.6 µM
- TGI (NCI-H23 lung): > 100 µM
- GI50 (NCI-H322M lung): > 100 µM
- TGI (NCI-H322M lung): > 100 µM
- GI50 (NCI-H460 NSCLC): 31.7 µM
- TGI (NCI-H460 NSCLC): > 100 µM
- GI50 (NCI/ADR-RES ovarian): > 100 µM
- TGI (NCI/ADR-RES ovarian): > 100 µM
- GI50 (OVCAR-3 ovarian): 50.7 µM
- TGI (OVCAR-3 ovarian): > 100 µM
- GI50 (OVCAR-4 ovarian): > 100 µM
- TGI (OVCAR-4 ovarian): > 100 µM
- GI50 (OVCAR-5 ovarian): 87.8 µM
- TGI (OVCAR-5 ovarian): > 100 µM
- GI50 (OVCAR-8 ovarian): 26.7 µM
- TGI (OVCAR-8 ovarian): > 100 µM
- GI50 (RPMI-8226 leukemia): 5.06 µM
- TGI (RPMI-8226 leukemia): 34.3 µM
- GI50 (RXF 393 renal): 39.8 µM
- TGI (RXF 393 renal): > 100 µM
- GI50 (SF-295 CNS): > 100 µM
- TGI (SF-295 CNS): > 100 µM
- GI50 (SF-539 CNS): 11.6 µM
- TGI (SF-539 CNS): > 100 µM
- GI50 (SK-MEL-2 melanoma): 66.7 µM
- TGI (SK-MEL-2 melanoma): > 100 µM
- GI50 (SK-MEL-28 melanoma): > 100 µM
- TGI (SK-MEL-28 melanoma): > 100 µM
- GI50 (SK-MEL-5 melanoma): 11.2 µM
- TGI (SK-MEL-5 melanoma): > 100 µM
- GI50 (SK-OV-3 ovarian): 86.1 µM
- TGI (SK-OV-3 ovarian): > 100 µM
- GI50 (SN12C renal): 12.9 µM
- TGI (SN12C renal): > 100 µM
- GI50 (SNB-19 CNS): > 100 µM
- TGI (SNB-19 CNS): > 100 µM
- GI50 (SNB-75 CNS): 11.9 µM
- TGI (SNB-75 CNS): > 100 µM
- GI50 (SR leukemia): 10.1 µM
- TGI (SR leukemia): 41.5 µM
- GI50 (SW-620 colon): 52 µM
- TGI (SW-620 colon): > 100 µM
- GI50 (T-47D breast): 5.9 µM
- TGI (T-47D breast): > 100 µM
- GI50 (TK-10 renal): 29.8 µM
- TGI (TK-10 renal): > 100 µM
- GI50 (U251 glioblastoma): 57.9 µM
- TGI (U251 glioblastoma): > 100 µM
- GI50 (UACC-257 melanoma): 60.6 µM
- TGI (UACC-257 melanoma): > 100 µM
- GI50 (UO-31 renal): 72 µM
- TGI (UO-31 renal): > 100 µM
